Data: patent US20250026721A1, “COMPOUNDS AND METHODS FOR MODULATING RAS-PI3K” (Vividion Therapeutics, Inc., priority 2023, published 2025)

Target: T1, PIK3CA (Homo sapiens, UniProt P42336)
T1 construct: endogenous in cells; host or cells: Jurkat cell lysate
Assay: In vitro ELISA target engagement assay for PIK3CA in Jurkat cellular lysate (competition with PIK3CA Biotin Probe)
Type: binding
Conditions: 1 hour at rt, then 500 nM PIK3CA Biotin Probe, read-out: Elisa Target Engagement Assay (TE50)
Summary of the method: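 Competition format in Jurkat lysate: compound (serial dilutions, top 200 μM) for 1 h at rt, then 500 nM final biotinylated PIK3CA probe for 1 h at rt. Sandwich ELISA with capture antibody and Neutravidin-HRP luminescence read-out measured probe-labelled PIK3CA, giving TE50.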

T1 sequence (P42336 whole entry): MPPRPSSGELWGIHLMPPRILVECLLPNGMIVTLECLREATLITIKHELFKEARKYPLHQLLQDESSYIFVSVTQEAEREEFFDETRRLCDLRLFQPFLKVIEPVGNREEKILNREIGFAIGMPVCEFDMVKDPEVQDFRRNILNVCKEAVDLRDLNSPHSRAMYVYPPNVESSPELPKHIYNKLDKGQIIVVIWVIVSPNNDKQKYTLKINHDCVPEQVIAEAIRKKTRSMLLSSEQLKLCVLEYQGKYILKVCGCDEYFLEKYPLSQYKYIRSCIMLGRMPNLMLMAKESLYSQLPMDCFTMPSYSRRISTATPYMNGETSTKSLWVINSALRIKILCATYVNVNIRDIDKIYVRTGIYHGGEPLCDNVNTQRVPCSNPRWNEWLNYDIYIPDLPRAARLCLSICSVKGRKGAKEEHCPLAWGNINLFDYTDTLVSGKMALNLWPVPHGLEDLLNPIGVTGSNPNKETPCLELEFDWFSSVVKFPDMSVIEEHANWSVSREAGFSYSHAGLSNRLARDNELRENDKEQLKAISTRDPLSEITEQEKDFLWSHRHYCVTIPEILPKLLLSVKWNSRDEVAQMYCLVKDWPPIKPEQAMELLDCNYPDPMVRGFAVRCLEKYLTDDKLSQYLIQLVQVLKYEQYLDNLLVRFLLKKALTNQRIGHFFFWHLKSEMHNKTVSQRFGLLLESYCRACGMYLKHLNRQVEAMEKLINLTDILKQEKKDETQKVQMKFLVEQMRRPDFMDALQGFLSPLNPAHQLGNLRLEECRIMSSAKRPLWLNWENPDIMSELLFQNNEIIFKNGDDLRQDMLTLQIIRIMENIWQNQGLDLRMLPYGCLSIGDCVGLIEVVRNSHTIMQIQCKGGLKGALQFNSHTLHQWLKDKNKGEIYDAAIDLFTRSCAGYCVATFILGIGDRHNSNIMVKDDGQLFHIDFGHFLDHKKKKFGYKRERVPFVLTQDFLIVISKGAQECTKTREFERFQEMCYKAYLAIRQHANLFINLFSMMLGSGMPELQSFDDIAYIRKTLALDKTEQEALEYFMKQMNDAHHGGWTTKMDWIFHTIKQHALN
T1 sequence (P27986 whole entry partner): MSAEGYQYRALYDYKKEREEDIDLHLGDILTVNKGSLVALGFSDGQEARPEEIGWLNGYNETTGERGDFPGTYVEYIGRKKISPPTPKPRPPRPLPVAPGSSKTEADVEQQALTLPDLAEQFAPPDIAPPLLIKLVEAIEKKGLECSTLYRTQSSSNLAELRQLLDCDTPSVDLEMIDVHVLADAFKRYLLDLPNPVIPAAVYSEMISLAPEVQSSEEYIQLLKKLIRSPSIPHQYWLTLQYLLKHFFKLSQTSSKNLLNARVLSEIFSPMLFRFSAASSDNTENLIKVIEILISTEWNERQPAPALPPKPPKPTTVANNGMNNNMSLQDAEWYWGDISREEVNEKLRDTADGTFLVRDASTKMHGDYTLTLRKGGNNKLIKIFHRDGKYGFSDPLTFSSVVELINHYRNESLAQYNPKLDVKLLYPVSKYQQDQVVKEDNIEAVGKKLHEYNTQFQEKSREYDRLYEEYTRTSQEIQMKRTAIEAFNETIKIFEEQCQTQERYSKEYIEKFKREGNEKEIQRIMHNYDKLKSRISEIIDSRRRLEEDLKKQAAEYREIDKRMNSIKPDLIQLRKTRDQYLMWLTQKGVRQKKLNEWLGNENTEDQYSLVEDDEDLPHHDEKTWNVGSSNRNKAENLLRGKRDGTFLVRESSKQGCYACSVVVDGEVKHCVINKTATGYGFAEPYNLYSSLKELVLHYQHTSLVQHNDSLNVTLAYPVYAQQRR

| IC50 [µM] | Structure (SMILES) |
| --- | --- |
| 0.52 | N#C/C=C/CNC(=O)C1(F)CCN(S(=O)(=O)c2cnc(Cl)cc2-c2ccccc2Cl)CC1 [Compound 232, (E)-1-((6-chloro-4-(2-chlorophenyl)pyridin-3-yl)sulfonyl)-N-(3-cyanoallyl)-4-fluoropiperidine-4-carboxamide] |
| 0.29 | O=C(NCC1=CS(=O)(=O)C1)C1(F)CCN(S(=O)(=O)c2ccc(Br)cc2-c2ccccc2Cl)CC1 [Compound 233, 1-((5-bromo-2′-chloro-[1,1′-biphenyl]-2-yl)sulfonyl)-N-((1,1-dioxido-2H-thiet-3-yl)methyl)-4-fluoropiperidine-4-carboxamide] |
| 0.37 | COc1ccc(S(=O)(=O)N2CCC(F)(C(=O)N[C@H](C)C3=CS(=O)(=O)C3)CC2)c(-c2ccccc2Cl)c1 [Compound 235, (R)-1-((2′-chloro-5-methoxy-[1,1′-biphenyl]-2-yl)sulfonyl)-N-(1-(1,1-dioxido-2H-thiet-3-yl)ethyl)-4-fluoropiperidine-4-carboxamide] |
| 0.39 | C[C@@H](NC(=O)C1(F)CCN(S(=O)(=O)c2ccc(C(F)(F)F)cc2-c2ccccc2Cl)CC1)C1=CS(=O)(=O)C1 [Compound 236, (R)-1-((2′-chloro-5-(trifluoromethyl)-[1,1′-biphenyl]-2-yl)sulfonyl)-N-(1-(1,1-dioxido-2H-thiet-3-yl)ethyl)-4-fluoropiperidine-4-carboxamide] |
| 0.41 | COC[C@H](/C=C\S(C)(=O)=O)NC(=O)C1(F)CCN(S(=O)(=O)c2ccc(Br)cc2-c2ccccc2Cl)CC1 [Compound 247, (S,Z)-1-((5-bromo-2′-chloro-[1,1′-biphenyl]-2-yl)sulfonyl)-4-fluoro-N-(1-methoxy-4-(methylsulfonyl)but-3-en-2-yl)piperidine-4-carboxamide] |
| 0.883 | C[C@H](/C=C\S(C)(=O)=O)NC(=O)C1(F)CCN(C(=O)C2CCN(C(=O)OC(C)(C)C)C=C2c2ccccc2Cl)CC1 (stereo partly drawn) [Compound 258, tert-butyl 5-(2-chlorophenyl)-4-(4-fluoro-4-(((R,Z)-4-(methylsulfonyl)but-3-en-2-yl)carbamoyl)piperidine-1-carbonyl)-3,4-dihydropyridine-1(2H)-carboxylate] |
| 0.83 | CS(=O)(=O)C=C1CN(C(=O)C2(F)CCN(S(=O)(=O)c3ccc(Br)cc3-c3ccccc3Cl)CC2)C1 [Compound 273, (1-((5-bromo-2′-chloro-[1,1′-biphenyl]-2-yl)sulfonyl)-4-fluoropiperidin-4-yl)(3-((methylsulfonyl)methylene)azetidin-1-yl)methanone] |
| 0.15 | C[C@H](C#CC(=O)N(C)C)NC(=O)C1(F)CCN(S(=O)(=O)c2ccc(Br)cc2-c2ccccc2Cl)CC1 [Compound 280, (R)-1-((5-bromo-2′-chloro-[1,1′-biphenyl]-2-yl)sulfonyl)-N-(5-(dimethylamino)-5-oxopent-3-yn-2-yl)-4-fluoropiperidine-4-carboxamide] |
| 0.16 | C[C@@H](C#CC(=O)N(C)C)NC(=O)C1(F)CCN(S(=O)(=O)c2ccc(Br)cc2-c2ccccc2Cl)CC1 [Compound 281, (S)-1-((5-bromo-2′-chloro-[1,1′-biphenyl]-2-yl)sulfonyl)-N-(5-(dimethylamino)-5-oxopent-3-yn-2-yl)-4-fluoropiperidine-4-carboxamide] |
| 0.2 | O=C(/C=C/CNC(=O)C1(F)CCN(S(=O)(=O)c2ccc(C(F)(F)F)cc2-c2ccccc2Cl)CC1)N1CC(F)(F)C1 [Compound 283, (E)-1-((2′-chloro-5-(trifluoromethyl)-[1,1′-biphenyl]-2-yl)sulfonyl)-N-(4-(3,3-difluoroazetidin-1-yl)-4-oxobut-2-en-1-yl)-4-fluoropiperidine-4-carboxamide] |
| 0.64 | O=C(/C=C\CNC(=O)C1(F)CCN(S(=O)(=O)c2ccc(Br)cc2-c2ccccc2Cl)CC1)N1CCC1 [Compound 286, (Z)-N-(4-(azetidin-1-yl)-4-oxobut-2-en-1-yl)-1-((5-bromo-2′-chloro-[1,1′-biphenyl]-2-yl)sulfonyl)-4-fluoropiperidine-4-carboxamide] |
| 0.83 | C[C@@H](/C=C\C(=O)N1CC(F)(F)C1)NC(=O)C1(F)CCN(S(=O)(=O)c2ccc(Br)cc2-c2ccccc2Cl)CC1 [Compound 287, (S,Z)-1-((5-bromo-2′-chloro-[1,1′-biphenyl]-2-yl)sulfonyl)-N-(5-(3,3-difluoroazetidin-1-yl)-5-oxopent-3-en-2-yl)-4-fluoropiperidine-4-carboxamide] |
| 0.49 | COc1ccc(S(=O)(=O)N2CC[C@@](F)(C(=O)NC/C=C\C(=O)N3CC(F)(F)C3)C[C@H]2C)c(-c2ccccc2Cl)c1 [Compound 288, (2R,4S)-1-((2′-chloro-5-methoxy-[1,1′-biphenyl]-2-yl)sulfonyl)-N-((Z)-4-(3,3-difluoroazetidin-1-yl)-4-oxobut-2-en-1-yl)-4-fluoro-2-methylpiperidine-4-carboxamide] |
| 0.46 | C[C@@H]1C[C@](F)(C(=O)NC/C=C\C(=O)N2CC(F)(F)C2)CCN1S(=O)(=O)c1cnc(C(F)(F)F)cc1-c1ccccc1Cl [Compound 289, (2R,4S)-1-((4-(2-chlorophenyl)-6-(trifluoromethyl)pyridin-3-yl)sulfonyl)-N-((Z)-4-(3,3-difluoroazetidin-1-yl)-4-oxobut-2-en-1-yl)-4-fluoro-2-methylpiperidine-4-carboxamide] |
| 1 | C[C@@H]1C[C@](F)(C(=O)NC/C=C\C(=O)N2CC(F)(F)C2)CCN1S(=O)(=O)c1ccc(C(F)(F)F)cc1-c1ccccc1Cl [Compound 290, (2R,4S)-1-((2′-chloro-5-(trifluoromethyl)-[1,1′-biphenyl]-2-yl)sulfonyl)-N-((Z)-4-(3,3-difluoroazetidin-1-yl)-4-oxobut-2-en-1-yl)-4-fluoro-2-methylpiperidine-4-carboxamide] |
| 0.32 | C[C@@H]1C[C@](F)(C(=O)NC/C=C\C(=O)N2CC(F)(F)C2)CCN1S(=O)(=O)c1ccc(Br)cc1-c1ccccc1Cl [Compound 291, (2R,4S)-1-((5-bromo-2′-chloro-[1,1′-biphenyl]-2-yl)sulfonyl)-N-((Z)-4-(3,3-difluoroazetidin-1-yl)-4-oxobut-2-en-1-yl)-4-fluoro-2-methylpiperidine-4-carboxamide] |
| 0.16 | C[C@@H]1C[C@](F)(C(=O)NC/C=C\C(=O)N2CC(F)(F)C2)CCN1S(=O)(=O)c1ccc(C#N)cc1-c1ccccc1Cl [Compound 292, (2R,4S)-1-((2′-chloro-5-cyano-[1,1′-biphenyl]-2-yl)sulfonyl)-N-((Z)-4-(3,3-difluoroazetidin-1-yl)-4-oxobut-2-en-1-yl)-4-fluoro-2-methylpiperidine-4-carboxamide] |
| 0.35 | COc1ccc(C(=O)N2CCC[C@](F)(C(=O)N[C@H](C)/C=C\S(C)(=O)=O)CC2)c(-c2ccccc2Cl)c1 [Compound 295, (R)-1-(2′-chloro-5-methoxy-[1,1′-biphenyl]-2-carbonyl)-4-fluoro-N-((R,Z)-4-(methylsulfonyl)but-3-en-2-yl)azepane-4-carboxamide] |
| 0.74 | C[C@H](/C=C\S(C)(=O)=O)NC(=O)C1(F)CCN(C(=O)[C@H]2CN(C3CC3)C[C@H]2c2ccccc2Cl)CC1 [Compound 304, 1-((3R,4R)-4-(2-chlorophenyl)-1-cyclopropylpyrrolidine-3-carbonyl)-4-fluoro-N-((R,Z)-4-(methylsulfonyl)but-3-en-2-yl)piperidine-4-carboxamide] |
| 0.82 | C[C@H](/C=C\S(C)(=O)=O)NC(=O)[C@]1(F)CCCN(S(=O)(=O)c2ccc(C(F)(F)F)cc2-c2ccccc2Cl)CC1 [Compound 311, (S)-1-((2′-chloro-5-(trifluoromethyl)-[1,1′-biphenyl]-2-yl)sulfonyl)-4-fluoro-N-((R,Z)-4-(methylsulfonyl)but-3-en-2-yl)azepane-4-carboxamide] |
| 0.53 | COc1ccc(S(=O)(=O)N2CCC[C@@](F)(C(=O)N[C@H](C)/C=C\S(C)(=O)=O)CC2)c(-c2ccccc2Cl)c1 [Compound 313, (S)-1-((2′-chloro-5-methoxy-[1,1′-biphenyl]-2-yl)sulfonyl)-4-fluoro-N-((R,Z)-4-(methylsulfonyl)but-3-en-2-yl)azepane-4-carboxamide] |
